Results published in article PMC6628362, “A New Strategy for Glioblastoma Treatment: In Vitro and In Vivo Preclinical Characterization of Si306, a Pyrazolo[3,4-d]Pyrimidine Dual Src/P-Glycoprotein Inhibitor” (Cancers, 2019).

Experiments:
U87-TxR cells = experiment: Reversal of paclitaxel resistance, MTT combination treatment; type: cell-based, Human; conditions: 0.2 µM of the compound, 72 h
Method: (§1) MTT assay was used to assess the viability of U87 and U87-TxR cells (AppliChem GmbH, Taufkirchen, Germany). After reaching the confluence in 25 cm^2 tissue flasks, U87 and U87-TxR cells were trypsinized. Cells were seeded at the optimal density determined in initial experiments: 4000 cell/well into flat-bottomed 96-well tissue culture plates. Following the overnight incubation, cells were treated with Si306, pro-Si306 and dasatinib (1–25 µM) for 72 h. In addition, the combined effects of Si306 and pro-Si306 with PTX were evaluated in MDR GBM cells. To that end, two concentrations of Si306 and pro-Si306 (0.2 μM and 0.5 μM) were combined with increasing concentrations of PTX (0.1–2 μM) in simultaneous treatment. The sensitization of U87-TxR cells to PTX was studied after 72 h. Briefly, MTT was added to each well in a final concentration of 0.2 mg/mL for 4 h to induce the formation of the formazan in cells with intact/viable mitochondria. Then, produced formazan was dissolved in DMSO, and the absorbance was measured at 540 nm on a microplate reader (LKB 5060-006 Micro Plate Reader, Vienna, Austria). IC50 values were calculated by nonlinear regression analysis using GraphPad Prism 6.0 for Windows (GraphPad Software, La Jolla, CA, USA).

[1] = tested on: Alpha-1-acid glycoprotein (AGP); experiment: Binding fluorimetric assay, AGP; type: in vitro ADME; conditions: 10 µM AGP, fluorescence quenching
Method: In order to determine the binding affinity for Si306 and pro-Si306 to HSA (human serum albumin) and AGP (alpha-1-acid glycoprotein), the protein fluorescence has been monitored by spectroscopy. The quantitative analysis was performed using black 96 multiwell plates: in each well, a fixed concentration of HSA or AGP (10 µM in phosphate buffer 1 mM) was added with different amounts of the tested compound (0.1 µM to 500 µM). Plates were gently shacked and after 30 min at room temperature for equilibration, spectra were recorded from 300 to 400 nm, after excitation at 295 nm, by using a Perkin Elmer EnVision Multilabel Reader 2014 spectrofluorimeter. Finally, spectra were acquired with EnVision Manager ver.1.13 software (Walthman, MA, USA). The obtained non fluorescence quenching percentages were plotted against drug concentrations and the relative KD values were calculated using GraphPad software (version 6.0).

LN-229 = experiment: MTT cell growth inhibition, LN-229; type: cell-based, Human; conditions: LN-229, MTT, n = 3
[2] = parameters: method as in PMID 28650650; conditions: cited from earlier work
U87-TxR = experiment: MTT cell growth inhibition, MDR U87-TxR; type: cell-based, Human; conditions: 72 h, n = 3
Method: Human GBM cell lines U87 and LN-229 were purchased from the American Type Culture Collection, Rockville, MD, USA. U87-TxR cells were selected from U87 cells by continuous exposure to increasing concentrations of PTX [76]. LN-299, U87 and U87-TxR cells were grown in Minimum Essential Medium with 10% fetal bovine serum, 2 mM L-glutamine and 5000 U/mL penicillin, 5 mg/mL streptomycin solution. Cell lines were maintained at 37 °C in a humidified 5% CO2 atmosphere. They were sub-cultured at 72 h intervals using 0.25% trypsin/EDTA and 16,000 cells/cm^2 were seeded into a fresh medium.
as §1

CYP3A4 = molecular target: T1, CYP3A4 (Homo sapiens, UniProt P08684); experiment: CYP3A4 inhibition in human liver microsomes (testosterone 6β-hydroxylation); type: in vitro ADME
T1 construct: Incubations were carried out in a mix containing human liver microsomes (1 mg/mL of protein); from tissue; host or cells: human liver microsomes
T1 sequence (P08684 whole entry): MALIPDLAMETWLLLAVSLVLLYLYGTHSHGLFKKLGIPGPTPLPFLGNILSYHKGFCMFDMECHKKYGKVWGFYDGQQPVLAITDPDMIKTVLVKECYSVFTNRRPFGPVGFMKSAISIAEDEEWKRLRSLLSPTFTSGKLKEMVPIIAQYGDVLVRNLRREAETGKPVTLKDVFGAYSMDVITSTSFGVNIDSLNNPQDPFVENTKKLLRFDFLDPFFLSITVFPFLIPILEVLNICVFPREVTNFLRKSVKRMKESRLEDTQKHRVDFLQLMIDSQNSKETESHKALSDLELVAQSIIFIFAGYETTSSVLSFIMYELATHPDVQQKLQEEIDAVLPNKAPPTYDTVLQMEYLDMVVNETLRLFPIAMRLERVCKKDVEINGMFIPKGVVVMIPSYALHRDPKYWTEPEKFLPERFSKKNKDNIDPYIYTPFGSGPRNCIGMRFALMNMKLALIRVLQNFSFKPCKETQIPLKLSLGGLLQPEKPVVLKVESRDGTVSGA
Method: The inhibition of cytochrome P450 3A4 isoform by Si306 and pro-Si306 was measured by determining its activity on the substrate testosterone.
The activity of CYP3A4 was evaluated by measuring the 6β-hydroxylated testosterone formation (CYP3A4-specific reaction). The amount of 6β-hydroxylated metabolite was assessed in the absence and presence of Si306, pro-Si306 and ketoconazole (testosterone concentration of 100 μM in phosphate buffer 0.025 M, pH 7.4). […] Ketoconazole was used as standard selective inhibitor of CYP3A4 isoenzyme. Incubations were carried out in a mix containing human liver microsomes (1 mg/mL of protein) in phosphate buffer 0.025 M, pH 7.4, NADPH (200 μM) previously solubilized in a MgCl2 48 mM solution. The final incubation volume was 0.25 mL. After a 40 min-incubation period at 37 °C, the reaction was stopped by adding 1 mL of acetonitrile in the presence of corticosterone 2 μM as internal standard. The samples were centrifuged for 20 min at 5000 rpm. Concentrations of testosterone and its metabolite 6β-hydroxytestosterone were assessed by the HPLC method with UV detection. Calibration curve for quantitative analysis of 6β-hydroxytestosterone in the samples was obtained using commercial 6β-hydroxytestosterone purchased from Sigma Aldrich. For the statistical analysis, GraphPad InStat 3.0 (GraphPad Software, San Diego, CA, USA) was used.

[3] = Acute toxicity study in mice (single i.v. dose); type: in vivo, BALB/c mice
Method: Male BALB/c mice (20 ± 2) g, supplied by Harlan Italy S.r.l., San Pietro al Natisone, Udine, Italy, were acclimated at 25 °C and 55% of humidity under natural light/dark conditions for 1 week before the proposed experiments. Animal welfare was routinely checked by veterinarians of the Service for Animal Welfare and all efforts were made to minimize suffering.
The study design includes three groups of five mice each. All mice were injected with compound through the tail vein in a single systemic dose (0.05 mL per dose). The test compound was solubilized in PBS/25% DMSO. The first group was treated with dose levels of 50 mg/kg; the second received a high-dose level of 100 mg/kg, whereas the third was inoculated with the only vehicle as the control. All mice were monitored for survival and the presence of any drug-related adverse effect (local signs of inflammation, weight loss, diarrhea, and behavioral alterations) throughout the experimental period. Mice were sacrificed 4 days after treatment, and liver, kidney, and brain tissue specimens were aseptically removed, fixed in 4% formaldehyde solution, and processed for paraffin embedding. Histopathological changes in tissue specimens were evaluated in 10 randomly selected tissue sections from each organ for all the samples. Sections cut at 2 μm were stained with hematoxylin and eosin (H&E) and analyzed by a pathologist with an optical microscope (Leica, Wetzlar, Germany).

## ClC(Cn1ncc2c(Nc3cccc(Br)c3)nc(SCCN3CCOCC3)nc21)c1ccccc1 (stereo not drawn) [Si306]
U87-TxR cells
  Relative Reversal of PTX resistance: 1.16 ^ns
[1]
  BMAX: 88.38 ± 1.8
[1]; alpha-1-acid glycoprotein (10 µM) in phosphate buffer
  Kd at 30 min: 11.5 ± 1 µM
LN-229; Homo sapiens, LN-229, 72 h
  IC50: 8 µM
LN-229; 72 h
  IC50: 8.01 ± 0.574 µM
[2]
  solubility: very poorly water soluble
U87-TxR
  IC50: 4.78 ± 0.322 µM
U87-TxR; Homo sapiens, U87-TxR
  IC50: 4.8 µM
CYP3A4; pH 7.4, probe testosterone 100 μM (6β-hydroxylation), highest concentration used (1–50 μM range), not significative, read-out: maximum inhibition of CYP3A4 (testosterone 6β-hydroxylation)
  inhibition at 40 min, 50 μM: 20%
CYP3A4; up to 50 μM
  interaction with CYP3A4: do not interact with CYP3A4
[3]; 50 and 100 mg/kg i.v., 4 days after treatment, H&E
  microscopic alterations in liver, kidney and central nervous system: No microscopic alterations
[3]; limit test dose 100 mg/kg, i.v., four days observation
  treatment-related mortality: did not produce treatment-related mortality
[3]; male, BALB/c, mouse, in vivo, iv, single dose, mice
  LD50 at 4 days: > 100 mg/kg
[3]; up to 100 mg/kg i.v., four days observation
  behavior (apathy, hyperactivity, vomiting, diarrhea, morbidity): no significant changes occurred in the behavior
[3]; up to 100 mg/kg i.v., recorded daily
  body weights: no significant changes
